Assay results as given in patent US20260130924A1, “COMPOSITIONS AND METHODS OF TREATING SUBJECTS WITH BRCA1 MUTATION OR DEFICIENCY” (BOARD OF REGENTS, THE UNIVERSITY OF TEXAS SYSTEM, priority 2022, published 2026).
“Also recorded” adds a separate entry of the source.

Assays:
Type in all cases: cell-based, human
[1] = test system: BRCA1 sgRNA-infected (BRCA1 sg) cells; assay: FIN-induced lipid peroxidation and ferroptosis in BRCA1 sgRNA-infected cells; settings: for effect of BRCA1 deficiency on the lipid peroxidation and ferroptosis induced by the compound: BRCA1 sg cells versus control; for effect on RSL3-induced cell death in BRCA1 sg cells: co-treatment with RSL3
Experimental: (§1) Knockout of BRCA1, BRCA2, VDAC3, GPX4, ECAD, 53BP1, and NCOA4 in human cell lines was performed using single guide RNAs (sgRNAs) and the CRISPR-Cas9 expression system as previously described. Briefly, sgRNAs were cloned into the lentiviral LentiGuide vector. The sequences of sgRNAs used in the current study are listed in SEQ ID NOs 1-23. LentiGuide clones were transfected into HEK293T cells with a psPAX2 packaging plasmid and pMD2.G-expressing plasmid. Cells were infected with lentivirus with 0.8 μg/mL polybrene and selected with puromycin (1 μg/mL, InvivoGen) or blasticidin (2 μg/mL, InvivoGen), followed by Western blot analysis to confirm target gene deletion. To maintain GPX4 knockout cells, we added 1 μM ferrostatin-1 into the media.
(§2) Viable cells were measured using Cell Counting Kit-8 (CCK-8, Dojindo) as previously described. Briefly, cells were seeded onto 96-well plates and subsequently treated with indicated agents. Next, cells were exposed to 10 μL of CCK-8 reagent (100 μL of medium per well) for 1 hour at 37° C. with 5% CO2 in an incubator. The absorbance at a wavelength of 450 nm was determined using a FLUOstar Omega microplate reader (BMG Labtech). The combination effects were assessed with Bliss independence model and the score is defined as “observed combination effect” minus “expected additive effect”.
(§3) Cell death was measured by propidium iodide (Roche) staining using a flow cytometer, as previously described. Briefly, cells were seeded onto 6- or 12-well plates and subsequently treated with indicated agents. For GPX4 knockout cells, ferrostatin-1 was removed from the culture media. Next, cells were collected (including floating dead cells) and stained with 5 μg/mL propidium iodide. The percentage of the propidium iodide-positive dead cells was determined using the flow cytometer BD Accuri C6 (BD Biosciences) or Attune NXT Flow Cytometer (ThermoFisher) with an FL2 detector. A minimum of 5,000 single cells were analyzed per well.
(§4) As previously described C11-BODIPY 581/591 (Invitrogen) was used for lipid peroxidation, MitoPerOx (Abcam) for mitochondrial lipid peroxidation, and CM-H2DCFDA (ThermoFisher) for ROS measurements. Briefly, cells were seeded on 6- or 12-well plates and subsequently treated with indicated agents. After staining with 2.5 μM C11-BODIPY 581/591, 2.5 μM MitoPerOx, or 4 μM CM-H2DCFDA for 20 minutes, cells were analyzed using the flow cytometer BD Accuri C6 (BD Biosciences) or Attune NxT Flow Cytometer (ThermoFisher) with a 488-nm laser on an FL1 detector. A minimum of 5,000 single cells were analyzed per well.

[2] = test system: VDAC3-KO cells; assay: FIN-induced ferroptosis in VDAC3-KO cells; settings: VDAC3 sg cells versus control
Experimental: as §1
Viable cells were measured using Cell Counting Kit-8 (CCK-8, Dojindo) as previously described. Briefly, cells were seeded onto 96-well plates and subsequently treated with indicated agents. […] The absorbance at a wavelength of 450 nm was determined using a FLUOstar Omega microplate reader (BMG Labtech). The combination effects were assessed with Bliss independence model and the score is defined as “observed combination effect” minus “expected additive effect”.
Cell death was measured by propidium iodide (Roche) staining using a flow cytometer, as previously described. […] The percentage of the propidium iodide-positive dead cells was determined using the flow cytometer BD Accuri C6 (BD Biosciences) or Attune NXT Flow Cytometer (ThermoFisher) with an FL2 detector. A minimum of 5,000 single cells were analyzed per well.
as §4, with “Briefly, cells were seeded on 6- or 12-well plates and subsequently treated with indicated agents.” left out

[3] = test system: BRCA2 sgRNA infected HT1080 cells; assay: FIN sensitivity of BRCA2 sgRNA-infected HT1080 cells; settings: BRCA2 sg HT1080 versus control
Experimental: as §1, §2

[4] = test system: WT, BRCA1- or VDAC3-deficient cells; assay: Rescue of Erastin-induced ferroptosis by antioxidants (cell viability); settings: for effect on Erastin-induced ferroptosis: wild-type (WT), BRCA1- or VDAC3-deficient cells
Experimental: as §2

[5] = test system: NRF2 and GPX4; assay: NRF2 and GPX4 protein levels (western blotting); settings: for GPX4 levels: BRCA1-mutant SUM149 cells
Experimental: Cell pellets were lysed using immunoprecipitation lysis buffer (Fisher Scientific) or NP-40 buffer containing complete mini protease inhibitors (Roche). Protein concentrations were detected by a Bicinchoninic Acid Protein Assay (Thermo Scientific) using a FLUOstar Omega microplate reader (BMG Labtech). Immunoprecipitation and Western blot analysis were conducted as previously described. The primary antibodies and concentrations used in the current study included the followed: GPX4 (1:1,000, MAB5457, R&D systems), BRCA1 (1:1,000, 14823, Cell Signaling), BRCA2 (1:1,000, MAB2476-SP, R&D Systems), DHODH (1:1,000, 14877-1-AP, Proteintech), ACSL4 (1:1,000, sc-271800, Santa Cruz), FSP1 (1:1,000, 20886-1-AP, Proteintech), VDAC1 (1:1,000, 66345-1-Ig, Proteintech), VDAC2 (1:1,000, 66388-1-Ig, Proteintech), VDAC3 (1:1,000, 55260-1-AP, Proteintech), SLC7A11 (1:1,000, 12691, Cell Signaling), NCOA4 (1:1,000, 66849, Cell Signaling), vinculin (1:10000; […], Sigma), β-actin (1:1,000, 3700, Cell Signaling), LC3B (1:5000, 3868, Cell Signaling), 53BP1 (1:5000, NB100-304, Novus Biologicals), E-Cadherin (1:1000, 3195, Cell Signaling), and tubulin (1:5000, 2144, Cell Signaling).

[6] = test system: SUM149 and HS578T cells; assay: ROS-related cell death in SUM149 and HS578T cells (cell viability)
Experimental: as §2

[7] = test system: BRCA1-mutant cancer cells (SUM149, HCC1937); assay: PARPi+GPX4i combination-induced lipid peroxidation and cell death; settings: for effect on cell death induced by PARP inhibitor+GPX4 inhibitor combination: BRCA1-mutant cells
Experimental: as §3, §4

[8] = test system: NCOA4; assay: NCOA4 expression after PARPi treatment (western blotting); settings: SUM149 and HCC1937 cells
Experimental: Cell pellets were lysed using immunoprecipitation lysis buffer (Fisher Scientific) or NP-40 buffer containing complete mini protease inhibitors (Roche). Protein concentrations were detected by a Bicinchoninic Acid Protein Assay (Thermo Scientific) using a FLUOstar Omega microplate reader (BMG Labtech). Immunoprecipitation and Western blot analysis were conducted as previously described. The primary antibodies and concentrations used in the current study included the followed: GPX4 (1:1,000, MAB5457, R&D systems), BRCA1 (1:1,000, 14823, Cell Signaling), BRCA2 (1:1,000, MAB2476-SP, R&D Systems), DHODH (1:1,000, 14877-1-AP, Proteintech), ACSL4 (1:1,000, sc-271800, Santa Cruz), FSP1 (1:1,000, 20886-1-AP, Proteintech), VDAC1 (1:1,000, 66345-1-Ig, Proteintech), VDAC2 (1:1,000, 66388-1-Ig, Proteintech), VDAC3 (1:1,000, 55260-1-AP, Proteintech), SLC7A11 (1:1,000, 12691, Cell Signaling), NCOA4 (1:1,000, 66849, Cell Signaling), vinculin (1:10000; V4505, Sigma), β-actin (1:1,000, 3700, Cell Signaling), LC3B (1:5000, 3868, Cell Signaling), 53BP1 (1:5000, NB100-304, Novus Biologicals), E-Cadherin (1:1000, 3195, Cell Signaling), and tubulin (1:5000, 2144, Cell Signaling).

[9] = BRCA1 sgRNA infected SKOV3 cells

Molecule: CC(C)Oc1ccc(C(=O)Cn2ccnc2)cc1-n1c(CN2CCN(C(=O)COc3ccc(Cl)cc3)CC2)nc2ccccc2c1=O [IKE, imidazole ketone erastin]
- effect of BRCA1 deficiency on the lipid peroxidation and ferroptosis induced by the compound [1]: remarkably repressed
- effect of VDAC3 deletion on the lipid peroxidation, ferroptosis or sensitivity induced by the compound [2]: largely abolished
- effect of BRCA2 depletion on cellular sensitivity to the compound [3]: did not affect

Molecule: CC1(C)CC(NC(=O)C[P+](c2ccccc2)(c2ccccc2)c2ccccc2)CC(C)(C)N1[O] [MitoTEMPO]
- effect on cell viability of Erastin-treated cells ([4]; BRCA1- or VDAC3-deficient counterparts): did not provide a protective effect
- effect on cell viability of Erastin-treated cells ([4]; WT cells): largely restored cell viability

Molecule: CC(=O)N[C@@H](CS)C(=O)O [NAC, N-acetyl-1-cysteine]
- effect on PARP inhibitor-induced NRF2 and GPX4 induction ([5]; BRCA1-WT HS578T cells): abolished
- effect on PARP inhibitor-induced cell killing ([6]; BRCA1-deficient SUM149 cells): partially restored; also recorded: suppressed

Molecule: CN1C(=O)NC(Cc2c[nH]c3c(Cl)cccc23)C1=O (centres unmarked) [Nec-1s]
- effect on cell death induced by PARP inhibitor+GPX4 inhibitor combination [7]: not

Molecule: CC(C)(C)OO [TBH, tert-butyl hydroperoxide]
- cell death in BRCA1-deficient versus BRCA1-proficient cells ([6]; SUM149 or BRCA1 sg HS578T cells compared with HS578T cells): induced more cell death

Molecule: CC1(C)CCCC(C)(C)N1[O] [TEMPO]
- effect on Erastin-induced ferroptosis [4]: completely suppressed

Molecule: CCOC(=O)c1ccc(NC2CCCCC2)c(N)c1 [ferrostatin-1]
- effect on RSL3-induced cell death in BRCA1 sg cells [1]: abolished
- effect on Erastin-induced ferroptosis [4]: completely suppressed
- effect on cell death induced by PARP inhibitor+GPX4 inhibitor combination [7]: largely abolished

Molecule: NC(=O)c1cccc2cn(-c3ccc([C@@H]4CCCNC4)cc3)nc12 [niraparib]
- NCOA4 expression [8]: significantly induced

Molecule: O=C(O)c1cc(/N=N/c2ccc(S(=O)(=O)Nc3ccccn3)cc2)ccc1O [sulfasalazine]
- effect of BRCA1 deficiency on the lipid peroxidation and ferroptosis induced by the compound [1]: did not affect
- effect of VDAC3 deletion on the lipid peroxidation, ferroptosis or sensitivity induced by the compound [2]: did not affect

Molecule: C[S+]([O-])CCCCN=C=S (centres unmarked) [sulforaphane]
- GPX4 levels [5]: increased GPX4 levels

Molecule: CC(C)(C)c1cc(O)ccc1O [tert-butylhydroquinone]
- effect on RSL3-induced ferroptosis [1, 9]: rendered these cells resistant to RSL3-induced ferroptosis
- GPX4 levels [5]: increased GPX4 levels
- NRF2 and GPX4 levels [5, 9]: induced both NRF2 and GPX4 levels
- effect on ferroptosis induced by olaparib+RSL3 combination ([7]; SUM149 cells): suppressed

Molecule: Z-VAD
- effect on RSL3-induced cell death in BRCA1 sg cells [1]: not
- effect on cell death induced by PARP inhibitor+GPX4 inhibitor combination [7]: not
